Usually MIC50 stands for the lowest concentration that inhibits either 50% of growth or 50% of the strains tested, depending on the study.

Each structure is given as a SMILES string. Converted amounts (≈) assume the structure as drawn.

In test [1] the test system is mitochondrial membrane potential in U-2 OS osteosarcoma cells. The test can be described thus: MMP assay (high-content screening, TMRM). Particulars: 16 h; for reduction of the MMP: at concentrations as low as 5 µg/mL; for mitochondrial membrane potential (MMP), % of the control value: highest assay concentration (10 µg/mL), TMRM; for effect on MMP in the tested concentration range: 1 to 10 µg/mL. The format is cell-based, human. The protocol:
Since aurachins are described as electron-transport inhibitors of the mitochondrial respiratory chain (complex I and III), we analyzed the synthetic analogues in high-content screening experiments with respect to a decrease of the mitochondrial membrane potential (MMP). Human U-2 OS osteosarcoma cells were treated for 16 hours with aurachins 4, 9–11, and 17–19 at concentrations between 1 and 10 µg/mL, and mitochondria were labeled with tetramethylrhodamine methyl ester (TMRM) in order to assess changes in MMP (Figure 2). Most prominent concentration-dependent effects were determined for aurachin D (4) and one of its analogues (17). […] This might be due to differential effects on different cell lines, a different time course of electron-transport inhibition, or a different mode of inducing apoptosis (e.g., via enhanced ROS formation). However, at the highest assay concentration also shorter chain analogues 9–11 reduced the MMP to approximately 60–80% of the control value as exemplarily shown for geranyl analogue 9 (Figure 2B).
Figure 2 (A) Loss of mitochondrial membrane potential in human U-2 OS osteosarcoma cells that were treated with aurachin D (4) and analogue 17. Images were acquired on a BD Pathway855 automated microscope and subsequently processed in AttoVision v1.6.2. The relative MMP was calculated based on TMRM fluorescence intensity in the cytoplasmic segments. The value of the negative control (untreated cells) was set to 100% and the value of FCCP-treated cells (positive control) was set to 0%. Bars represent the mean ±SEM of all cellular segments within a well. (B) Representative HCS images of U-2 OS cells that were treated with aurachin D (4) or the geranyl analogue 9. Cells were labeled with TMRM and imaged in the rhodamine channel at 200× magnification. […]
MMP assay: Human U-2 OS osteosarcoma cells (HTB-96) were obtained from the American Type Culture Collection (ATCC) and were cultured under the conditions recommended by the depositor. Cells from actively growing cultures were harvested and seeded at 8 × 10^3 cells per well in 96-well imaging plates (BD Falcon). After 1 d cells reached approximately 60% confluency and were treated with aurachin analogues at the assigned concentrations for 16 h. In addition, cells were stimulated with 1 µM FCCP [carbonyl cyanide 4-(trifluoromethoxy)phenylhydrazone] as a positive control 1 h prior to the measurement. For labeling, cells were washed twice with assay buffer ([…], 5.4 mM KCl, 2 mM MgCl2, 10 mM glucose, 2 mM CaCl2, 10 mM HEPES; pH 7.35) and 100 µL of a staining solution (50 nM TMRM, […]
5 µg/mL Hoechst33342 in assay buffer) was added. The cells were stained for 30 min at 37 °C and after washing with assay buffer the samples were examined on an automated microscope (BD Pathway855) in 200-fold magnification with appropriate filter sets for rhodamine and Hoechst. For image analysis, a dual mask (Cyto-Nuc-Ring) was applied in AttoVision v1.6.2. Presented rhodamine fluorescence intensity values were generated in the cytoplasmic segment (ring around nuclei) on a single cell basis and averaged over the complete sample (well).
In vitro antiplasmodial assays: The chloroquine-resistant strain FcB1/Colombia of Plasmodium falciparum was maintained in vitro on human erythrocytes in RPMI 1640 medium supplemented by 8% (v/v) heat-inactivated human serum, at 37 °C, under an atmosphere of 3% CO2, 6% O2, and 91% N2. In vitro drug susceptibility assays was measured by [3H]-hypoxanthine incorporation as described. Drugs were prepared in DMSO at a 10 mg/mL concentration. Compounds were serially diluted two-fold with 100 µL culture medium in 96-well plates. Asynchronous parasite cultures (100 µL, 1% parasitaemia and 1% final hematocrite) were then added to each well and incubated for 24 h at 37 °C prior to the addition of 0.5 µCi of [3H]- hypoxanthine (GE Healthcare, France, 1 to 5 Ci·mmol/mL) per well. After a further incubation of 24 h, plates were frozen and thawed. […]

In the next test the test system is Bacillus subtilis DSM10. As to the kind of experiment: MIC determination. Format: cell-based. Particulars: duplicate, mean ±SD; for MIC50: Bacillus subtilis, DSM10. The protocol: (§1) MIC determination: Indicator strains were obtained from the German Collection of Microorganisms and Cell Cultures (Deutsche Sammlung für Mikroorganismen und Zellkulturen, DSMZ) or were part of our internal strain collection. All microorganisms were handled under standard conditions recommended by the depositor. Overnight […]
(§2) cultures of bacteria were prepared in EBS medium (0.5% casein peptone, 0.5% proteose peptone, 0.1% meat peptone, 0.1% yeast extract; pH 7.0). Yeasts and molds were grown in Myc medium (1% phytone peptone, 1% glucose, 50 mM
(§3) HEPES, pH 7.0). The overnight cultures of microorganisms were diluted to OD600 0.01 (bacteria) or 0.05 (yeasts/molds) in the respective growth medium. Serial dilutions of compounds were prepared as duplicates in sterile 96-well plates. The cell suspension was added and microorganisms were grown overnight on a microplate shaker (900 rpm, 30 °C or 37 °C). Growth inhibition was assessed by measuring the OD600 on a plate reader (POLARstar, BMG Labtech). MIC50 values were determined as averages relative to respective control samples by sigmoidal curve fitting. […]

The subject of a further test is Escherichia coli (TolC). As to the kind of experiment: MIC determination. The format is cell-based. Particulars: read-out: MIC50 Escherichia coli (TolC). As for the experimental part:
as §1, §2, §3

Test [2] concerns Escherichia coli DH5α (wt). As to the kind of experiment: MIC determination. The format is cell-based. Particulars: duplicate, mean ±SD. The protocol: as §1, §2, §3
In test [3] the test system is Klebsiella pneumoniae DSM30104. The test can be described thus: MIC determination. The format is cell-based. Particulars: duplicate, mean ±SD. The protocol: as §1, §2, §3
A further test concerns Micrococcus luteus. As to the kind of experiment: MIC determination. Format: cell-based. Particulars: duplicate, mean ±SD. As for the experimental part: as §1, §2, §3
In test [4] the test system is Staphylococcus aureus DSM11822 (MRSA). As to the kind of experiment: MIC determination. Format: cell-based. Particulars: duplicate, mean ±SD. The protocol:
as §1, §2, §3

The subject of test [5] is Staphylococcus aureus Newman (MSSA). As to the kind of experiment: MIC determination. The format is cell-based. Particulars: duplicate, mean ±SD. As for the experimental part: as §1, §2, §3

With `CC(C)=CCC/C(C)=C/CC/C(C)=C/Cc1c(C)[nH]c2ccccc2c1=O` [compound 4, aurachin D], in test [1], the “reduction of the MMP” value is “significantly reduced the MMP”. Besides, the “mitochondrial membrane potential (MMP), % of the control value” in test [1] is listed as “approximately 50%”. Also, the MIC50 in the test on Bacillus subtilis DSM10 was less than 0.1 µg/mL; in the test with Escherichia coli (TolC), 8.36 ± 1 µg/mL (≈ 23 µM); in test [2], greater than 64 µg/mL; in test [3] it was greater than 64 µg/mL; in the test with Micrococcus luteus, 1.47 ± 0.12 µg/mL (≈ 4.04 µM); in test [4], 2.1 ± 0.19 µg/mL (≈ 5.78 µM). In test [5], this compound displayed an MIC50 of 5.46 ± 1.05 µg/mL (≈ 15 µM).

In the case of `CC(C)=CCC/C(C)=C/Cc1c(C)[nH]c2ccccc2c1=O` [compound 9], in test [1], the “mitochondrial membrane potential (MMP), % of the control value” is 60–80%. The MIC50 in the test with Bacillus subtilis DSM10 is less than 0.1 µg/mL; in the test with Escherichia coli (TolC), 1.41 ± 0.45 µg/mL (≈ 4.77 µM); in test [2], greater than 64 µg/mL; in test [3] it was greater than 64 µg/mL; with Micrococcus luteus it was 2.59 ± 0.34 µg/mL (≈ 8.77 µM); in test [4], 4.5 ± 0.74 µg/mL (≈ 15.2 µM). The MIC50 in test [5] came to 3.96 ± 0.49 µg/mL (≈ 13.4 µM).

With `CC(C)=CCCC(C)=CCCC(C)=CCc1c(C)[nH]c2ccc3ccccc3c2c1=O` [compound 17], the “effect on MMP in the tested concentration range” value (“effect on MMP” for short) in test [1] is given as “strongly diminished the MMP”. Further, in test [1], the “reduction of the MMP” value is “significantly reduced the MMP”. For the same compound, the MIC50 (against Bacillus subtilis DSM10; in the test with Escherichia coli (TolC); in test [2]; in test [3]; in the test with Micrococcus luteus; in test [4]) was greater than 64 µg/mL in each case. This compound gave an MIC50 in test [5] greater than 64 µg/mL.

Regarding `COc1ccc2[nH]c(C)c(CC=C(C)CCC=C(C)CCC=C(C)C)c(=O)c2c1` [compound 18], the “effect on MMP” value in test [1] is “essentially inactive”. In addition, the MIC50 with Bacillus subtilis DSM10 was 6.75 ± 0.6 µg/mL (≈ 17.2 µM); in the test on Escherichia coli (TolC) it was greater than 64 µg/mL; in test [2], greater than 64 µg/mL; in test [3], greater than 64 µg/mL; against Micrococcus luteus, 49.2 ± 3.94 µg/mL (≈ 125 µM); in test [4] it was greater than 64 µg/mL. This compound had an MIC50 in test [5] greater than 64 µg/mL. Also, the “MIC50 Bacillus subtilis DSM10” value against Bacillus subtilis DSM10 is on record as “significant growth inhibitory effect”.

Turning to `CC(C)=CCCC(C)=CCCC(C)=CCc1c(C)[nH]c2cc3c(cc2c1=O)OCO3` [compound 19], the “effect on MMP” value in test [1] is “essentially inactive”. The MIC50 with Bacillus subtilis DSM10 was 4.66 ± 0.5 µg/mL (≈ 11.4 µM); in the test with Escherichia coli (TolC) it was greater than 64 µg/mL; in test [2], greater than 64 µg/mL; in test [3], greater than 64 µg/mL; in the test on Micrococcus luteus, greater than 64 µg/mL; in test [4], greater than 64 µg/mL. The MIC50 in test [5] came out at 34.6 ± 5.13 µg/mL (≈ 84.8 µM). For the same compound, the “MIC50 Bacillus subtilis DSM10” value against Bacillus subtilis DSM10 is listed as “significant growth inhibitory effect”.

The values above are taken from paper PMC3740496, “Synthesis and biological activities of the respiratory chain inhibitor aurachin D and new ring versus chain analogues” (Beilstein Journal of Organic Chemistry, 2013).
